From patent publication US7132425B2, “5-substituted-six-membered heteroaromatic glucokinase activators” (Hoffmann-La Roche Inc., priority 2002, dated 2006)

Test system: C57BL/6J mice
Assay: Glucokinase activator in vivo screen (blood glucose after oral dosing)
Conditions: oral gavage 50 mg/kg after two hour fast, readings 1, 2, 4 and 6 hours post dose, p≦0.05 for two consecutive assay time points
Experimental: Glucokinase Activator in vivo Screen Protocol: C57BL/6J mice are orally dosed via gavage with Glucokinase (GK) activator at 50 mg/kg body weight following a two hour fasting period. Blood glucose determinations are made five times during the six hour post-dose study period.
Mice (n=6) are weighed and fasted for a two hour period prior to oral treatment.
With `CS(=O)(=O)c1ccc([C@@H](CC2CCCC2)C(=O)Nc2cnc(C#CCO)cn2)cc1Cl` [Example 10, 2(R)-(3-Chloro-4-methanesulfonyl-phenyl)-3-cyclopentyl-N-[5-(3-hydroxy-prop-1-ynyl)-pyrazin-2-yl]-propionamide] the “decrease in blood glucose compared to vehicle” value (shortened to “decrease in blood glucose”) was “statistically significant (p≦0.05) decrease in blood glucose”. With `CN(C)CC#Cc1cnc(NC(=O)[C@H](CC2CCCC2)c2ccc(S(C)(=O)=O)c(Cl)c2)cn1` [Example 11, 2(R)-(3-Chloro-4-methanesulfonyl-phenyl)-3-cyclopentyl-N-[5-(3-dimethylamino-prop-1-ynyl)-pyrazin-2-yl]-propionamide] the “decrease in blood glucose” value was “statistically significant (p≦0.05) decrease in blood glucose”. In the case of `CN(C)CCCc1cnc(NC(=O)[C@H](CC2CCCC2)c2ccc(S(C)(=O)=O)c(Cl)c2)cn1` [Example 16, 2(R)-(3-Chloro-4-methanesulfonyl-phenyl)-3-cyclopentyl-N-[5-(3-dimethylamino-propyl)-pyrazin-2-yl]-propionamide], the “decrease in blood glucose” value is reported as “statistically significant (p≦0.05) decrease in blood glucose”. With `CS(=O)(=O)c1ccc(C(CC2CCCC2)C(=O)Nc2cnc(C=O)cn2)cc1Cl` (stereo not drawn) [Example 18, 2-(3-Chloro-4-methanesulfonyl-phenyl)-3-cyclopentyl-N-(5-formyl-pyrazin-2-yl)-propionamide] the “decrease in blood glucose” value was “statistically significant (p≦0.05) decrease in blood glucose”. With `CS(=O)(=O)c1ccc(C(CC2CCCC2)C(=O)Nc2cnc(CC3SC(=O)NC3=O)cn2)cc1Cl` (stereo not drawn) [Example 19, 2-(3-Chloro-4-methanesulfonyl-phenyl)-3-cyclopentyl-N-[5-(2,4-dioxo-thiazolidin-5-ylmethyl)-pyrazin-2-yl]-propionamide] the “decrease in blood glucose” value was “statistically significant (p≦0.05) decrease in blood glucose”. In the case of `COC(OC)c1cnc(NC(=O)[C@H](CC2CCCC2)c2ccc(S(C)(=O)=O)c(Cl)c2)cn1` [Example 21, 2(R)-(3-Chloro-4-methanesulfonyl-phenyl)-3-cyclopentyl-N-(5-dimethoxymethyl-pyrazin-2-yl)-propionamide], the “decrease in blood glucose” value is reported as “statistically significant (p≦0.05) decrease in blood glucose”. For `CC(=O)c1cnc(NC(=O)C(CC2CCCC2)c2ccc(S(C)(=O)=O)c(Cl)c2)cn1` (stereo not drawn) [Example 23, N-(5-Acetyl-pyrazin-2-yl)-2-(3-chloro-4-methanesulfonyl-phenyl)-3-cyclopentyl-propionamide], the “decrease in blood glucose” value was “statistically significant (p≦0.05) decrease in blood glucose”. In the case of `CS(=O)(=O)c1ccc([C@@H](CC2CCCC2)C(=O)Nc2cnc(C(O)C#N)cn2)cc1Cl` (stereo partly drawn) [Example 26, 2(R)-(3-Chloro-4-methanesulfonyl-phenyl)-N-[5-(cyano-hydroxy-methyl)-pyrazin-2-yl]-3-cyclopentyl-propionamide], the “decrease in blood glucose” value is reported as “statistically significant (p≦0.05) decrease in blood glucose”. With `C/C(=N/O)c1cnc(NC(=O)[C@H](CC2CCCC2)c2ccc(S(C)(=O)=O)c(Cl)c2)cn1` [Example 28, 2(R)-(3-Chloro-4-methanesulfonyl-phenyl)-3-cyclopentyl-N-[5-(1-(Z)-hydroxyimino-ethyl)-pyrazin-2-yl]-propionamide] the “decrease in blood glucose” value was “statistically significant (p≦0.05) decrease in blood glucose”. For `CS(=O)(=O)c1ccc([C@@H](CC2CCCC2)C(=O)Nc2cnc(C3OCCO3)cn2)cc1Cl` [Example 41, 2(R)-(3-Chloro-4-methanesulfonyl-phenyl)-3-cyclopentyl-N-(5-[1,3]dioxolan-2-yl-pyrazin-2-yl)-propionamide], the “decrease in blood glucose” value was “statistically significant (p≦0.05) decrease in blood glucose”. For `COCCOc1cnc(NC(=O)[C@H](CC2CCCC2)c2ccc(S(C)(=O)=O)c(Cl)c2)cn1` [Example 43, 2(R)-(3-Chloro-4-methanesulfonyl-phenyl)-3-cyclopentyl-N-5-(2-methoxyethoxy-pyrazin-2-yl)-propionamide], the “decrease in blood glucose” value was “statistically significant (p≦0.05) decrease in blood glucose”. For `CS(=O)(=O)c1ccc([C@@H](CC2CCCC2)C(=O)Nc2cnc(C#CC3(O)CCOCC3)cn2)cc1` [Example 46, 3-Cyclopentyl-N-5-[(4-hydroxy-tetrahydropyran-4-yl-ethynyl)pyrazin-2-yl]-2(R)-(4-methanesulfonyl-phenyl)-propionamide], the “decrease in blood glucose” value was “statistically significant (p≦0.05) decrease in blood glucose”. With `COCC#Cc1cnc(NC(=O)[C@H](CC2CCCC2)c2ccc(S(C)(=O)=O)c(Cl)c2)cn1` [Example 47, 2(R)-(3-Chloro-4-methanesulfonyl-phenyl)-3-cyclopentyl-N-[5-(3-methoxy-prop-1-ynyl)-pyrazin-2-yl]-propionamide] the “decrease in blood glucose” value was “statistically significant (p≦0.05) decrease in blood glucose”. With `CS(=O)(=O)c1ccc([C@@H](CC2CCCC2)C(=O)Nc2cnc(CCC3(O)CCOCC3)cn2)cc1Cl` [Example 51, 2(R)-(3-Chloro-4-methanesulfonyl-phenyl)-3-cyclopentyl-N-[5-(4-hydroxy-tetrahydropyran-4-yl-ethyl)-pyrazin-2-yl]-propionamide] the “decrease in blood glucose” value was “statistically significant (p≦0.05) decrease in blood glucose”. With `CS(=O)(=O)c1ccc([C@@H](CC2CCCC2)C(=O)Nc2cnc(C#CCCO)cn2)cc1Cl` [Example 53, 2(R)-(3-Chloro-4-methanesulfonyl-phenyl)-3-cyclopentyl-N-[5-(4-hydroxy-but-1-ynyl)-pyrazin-2-yl]-propionamide] the “decrease in blood glucose” value was “statistically significant (p≦0.05) decrease in blood glucose”. In the case of `CS(=O)(=O)c1ccc([C@@H](CC2CCCC2)C(=O)Nc2cnc([C@H](O)CO)cn2)cc1Cl` [Example 54, 2(R)-(3-Chloro-4-methanesulfonyl-phenyl)-3-cyclopentyl-N-[5-(1(S),2-dihydroxy-ethyl)-pyrazin-2-yl]-propionamide], the “decrease in blood glucose” value is reported as “statistically significant (p≦0.05) decrease in blood glucose”. In the case of `CS(=O)(=O)c1ccc([C@@H](CC2CCCC2)C(=O)Nc2cnc([C@@H](O)CO)cn2)cc1Cl` [Example 55], the “decrease in blood glucose” value is reported as “statistically significant (p≦0.05) decrease in blood glucose”. With `Cc1cc([C@@H](CC2CCCC2)C(=O)Nc2cnc(C#CC(C)(C)O)cn2)ccc1S(C)(=O)=O` [Example 57, 3-Cyclopentyl-N-[5-(3-hydroxy-3-methyl-but-1-ynyl)-pyrazin-2-yl]-2(R)-(4-methanesulfonyl-3-methyl-phenyl)-propionamide] the “decrease in blood glucose” value was “statistically significant (p≦0.05) decrease in blood glucose”. For `Cc1cc([C@@H](CC2CCCC2)C(=O)Nc2cnc([C@H](O)CO)cn2)ccc1S(C)(=O)=O` [Example 58, 3-Cyclopentyl-N-[5-1(S),2-dihydroxy-ethyl]-2(R)-(4-methanesulfonyl-3-methyl)-propionamide], the “decrease in blood glucose” value was “statistically significant (p≦0.05) decrease in blood glucose”. With `Cc1cc([C@@H](CC2CCCC2)C(=O)Nc2cnc(C#CC3(O)CCOCC3)cn2)ccc1S(C)(=O)=O` [Example 59, 3-Cyclopentyl-N-[5-(4-hydroxy-tetrahydro-pyran-4-ylethynyl)-pyrazin-2-yl]-2(R)-(4-methanesulfonyl-3-methyl-phenyl)-propionamide] the “decrease in blood glucose” value was “statistically significant (p≦0.05) decrease in blood glucose”. With `CC(C)(O)C#Cc1cnc(NC(=O)[C@H](CC2CCCC2)c2ccc(S(C)(=O)=O)cc2)cn1` [Example 61, 3-Cyclopentyl-2(R)-(4-methanesulfonyl-phenyl)-N-[5-(3-hydroxy-3-methyl-but-1-ynyl)-pyrazin-2-yl]-propionamide] the “decrease in blood glucose” value was “statistically significant (p≦0.05) decrease in blood glucose”. For `CS(=O)(=O)c1ccc([C@@H](CC2CCCC2)C(=O)Nc2cnc(OCCO)cn2)cc1Cl` [Example 62, 2(R)-(3-Chloro-4-methanesulfonyl-phenyl)-3-cyclopentyl-N-[5-(2-hydroxy-ethoxy)-pyrazin-2-yl]-propionamide], the “decrease in blood glucose” value was “statistically significant (p≦0.05) decrease in blood glucose”. In the case of `CS(=O)(=O)c1ccc([C@@H](CC2CCCC2)C(=O)Nc2ccc(C3CCCO3)cn2)cc1Cl` (stereo partly drawn) [Example 69, 2(R)-(3-Chloro-4-methanesulfonyl-phenyl)-3-cyclopentyl-N-[5-(tetrahydro-furan-2-yl)-pyridin-2-yl]-propionamide], the “decrease in blood glucose” value is reported as “statistically significant (p≦0.05) decrease in blood glucose”. In the case of `CS(=O)(=O)c1ccc([C@@H](CC2CCCC2)C(=O)Nc2cnc(-c3ccco3)cn2)cc1Cl` [Example 70, 2(R)-(3-Chloro-4-methanesulfonyl-phenyl)-3-cyclopentyl-N-(5-furan-2-yl-pyrazin-2-yl)-propionamide], the “decrease in blood glucose” value is reported as “statistically significant (p≦0.05) decrease in blood glucose”. For `CS(=O)(=O)c1ccc([C@@H](CC2CCCC2)C(=O)Nc2cnc(NCCO)cn2)cc1Cl` [Example 73, 2(R)-(3-Chloro-4-methanesulfonyl-phenyl)-3-cyclopentyl-N-[5-(2-hydroxy-ethylamino)-pyrazin-2-yl]-propionamide], the “decrease in blood glucose” value was “statistically significant (p≦0.05) decrease in blood glucose”. In the case of `CS(=O)(=O)c1ccc([C@@H](CC2CCCC2)C(=O)Nc2cnc(C3=CCCCO3)cn2)cc1Cl` [Example 75, 2(1R)-(3-Chloro-4-methanesulfonyl-phenyl)-3-cyclopentyl-N-[5-(5,6-dihydro-4H-pyran-2-yl)-pyrazin-2-yl]-propionamide], the “decrease in blood glucose” value is reported as “statistically significant (p≦0.05) decrease in blood glucose”.

Test system: not given
Assay: not given
Conditions: not given
With `CSc1cnc(NC(=O)[C@H](CC2CCCC2)c2ccc(S(C)(=O)=O)cc2)cn1` [Example 5, 3-Cyclopentyl-2(R)-(4-methanesulfonyl-phenyl)-N-(5-methylsulfanyl-pyrazin-2-yl)-propionamide] the melting point was 71 to 77 °C.
